Data set [1] can be described thus: in vivo bioavailability studies involving animal models. As to conditions: administered in its original crystalline form.
Data set [2] in a line: solubility of the drug in water / aqueous media. It counts as physicochemical.

Regarding `Cc1c(C)c2c(c(C)c1O)CCC(C)(COc1ccc(CC3SC(=O)NC3=O)cc1)O2` (single isomer, unassigned; (+)) [Romglizone, (+)-5-[4-(6-hydroxy-2,5,7,8-tetramethylchroman-2-ylmethoxy)-benzyl]-2,4-thiazolidinedione], the bioavailability entry in data set [1] is “poor bioavailability”. For the same molecule, the “change of solubility with pH” value in data set [2] (as the pH of the aqueous media increases) is on record as “slightly increases”. Moreover, in data set [2] (water), the solubility in water entry is recorded as “practically insoluble”.

(Values after US6677362B1, “Solid pharmaceutical dispersions” (Warner-Lambert Company, priority 1991, dated 2004).)
